# Test results taken from ChEMBL document CHEMBL1126511, “Protein damage caused by a synthetic enediyne core” (Bioorg Med Chem Lett, 1993).
# pIC50: −log10 of the molar value.
# System: HCT-116
# Test: In vitro cytotoxicity against human colon carcinoma cell line HCT116
# Format: functional, cell-based
compound,measurement,value
O=C1C2=CCC[C@@]1(O)C#C/C=C\C#C[C@@H]2O,pIC50,7.00
